Earlier results, collected in patent publication US20260000700A1, “TARGETED LINEAR CONJUGATES COMPRISING POLYETHYLENEIMINE AND POLYETHYLENE GLYCOL AND POLYPLEXES COMPRISING THE SAME” (TARGIMMUNE THERAPEUTICS AG, priority 2022, published 2026).

Biological target: EGFR (Homo sapiens, UniProt P00533)

With YHWYGYTPQNVI [GE-11] as the sequence, how does the Kd read?
The Kd was 0.022 µM.
